Structures can show the parent of a compound that is named as a salt.
Target: T1, human P2X4 receptors (Homo sapiens, UniProt Q99571)
T1 construct: expressed in transfected cells
T1 sequence (Q99571 1-388): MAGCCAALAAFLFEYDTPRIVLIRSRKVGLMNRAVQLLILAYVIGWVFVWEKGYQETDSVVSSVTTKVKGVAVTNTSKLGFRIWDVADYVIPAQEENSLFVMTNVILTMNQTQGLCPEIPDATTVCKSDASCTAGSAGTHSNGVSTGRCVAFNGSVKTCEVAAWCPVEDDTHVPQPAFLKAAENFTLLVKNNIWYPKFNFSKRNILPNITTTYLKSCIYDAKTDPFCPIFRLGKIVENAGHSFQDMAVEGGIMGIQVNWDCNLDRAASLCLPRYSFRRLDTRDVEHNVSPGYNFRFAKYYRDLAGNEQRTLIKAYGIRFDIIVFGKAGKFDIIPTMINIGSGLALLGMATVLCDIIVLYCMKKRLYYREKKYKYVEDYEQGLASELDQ
Assay: calcium influx assay (Fura-2, ATP-induced Ca2+ response) for P2X4 receptor antagonism
Format: cell-based
Details: 1321N1 cells stably expressing human P2X4 receptors; 1 μM ATP; compound treated 15 min before ATP; fluorescence ratio F340/F380
Description: (§1) 1321N1 cells stably expressing human P2X4 receptors were adopted for calcium influx assay. P2X4/1321N1 cells were plated in 96-well assay plate and cultured 24 hours in an atmosphere of 5% CO2 at 37° C. Fura-2 AM calcium indicator dissolved in an extracellular solution for calcium imaging was loaded onto cells for 45 minutes at room temperature. […] The cells were alternatively illuminated with two excitations wavelengths (340 nm and 380 nm) via xenon lamp and the emitted fluorescence was measured at 510 nm. The fluorescence changes after the treatment of 1 μM ATP were monitored and determined the fluorescence ratio (F340/F380) as the index of intracellular calcium change. Tested compounds were treated to cells 15 min before the addition of ATP and the inhibition activities of compounds were calculated by comparing the Ca^2+ response with control in the absence of tested compound.
P2X4 receptor antagonism of the compound of the present invention was measured as described below.
as §1, with “change.” for “change. Tested compounds were treated to cells 15 min before the addition of ATP and the inhibition activities of compounds were calculated by comparing the Ca^2+ response with control in the absence of tested compound.”

First: O=C1CC(=O)N(c2ccc(-c3nnn[nH]3)cc2)c2ccc3ccccc3c2N1 [Example 4, 5-[4-(1H-Tetrazol-5-yl)phenyl]-1H-naphtho[1,2-b][1,4]diazepin-2,4(3H,5H)-dione sodium salt]
Second: O=C1CC(=O)N(c2cccc(-c3cn[nH]c3)c2)c2ccc3ccccc3c2N1 [Example 16, 5-[3-(1H-Pyrazol-4-yl)phenyl]-1H-naphtho[1,2-b][1,4]diazepin-2,4(3H,5H)-dione]
The IC50 of the first is 4.8-fold lower: 0.75 µM for the first, 3.6 µM for the second.

`O=C1CC(=O)N(c2cccc(-c3ncco3)c2)c2ccc3ccccc3c2N1` [Example 15, 5-[3-(Oxazol-2-yl)phenyl]-1H-naphtho[1,2-b][1,4]diazepin-2,4(3H,5H)-dione] was tested, and the IC50 was 4.2 µM.

From US8470814B2, “Diazepinedione derivative” (Nippon Chemiphar Co., Ltd., priority 2009, dated 2013)
